The values below come from patent US8637665B2, “Pyrrolo[2,L-C][L,4]benzodiazepine-benzothiazole or benzoxazole conjugates linked through piperazine moiety and process for the preparation thereof” (priority 2010, dated 2014).

Where two headings read alike, the source gives them in different places.

Series [1] relates to KB (oral cancer) cell line. The series can be described thus: In vitro anticancer activity, SRB assay, KB. Format: cell-based, human. As to conditions: for GI50: mean of three determinations. The procedure: (§1) Anticancer activity: In vitro biological activity studies were carried out at the Advance Center for Treatment Research & Education in Cancer (ACTREC), Navi Mumbai.
(§2) The compounds were evaluated for in vitro anticancer activity against eight tumour cells lines derived from seven cancer types (non-small-cell lung, colon, oral, cervix, ovarian, prostate, and breast cancer) as shown in Table 2. For each compound, dose response curves for each cell line were measured at a minimum of five concentrations at 10 fold dilutions. A protocol of 48 h continuous drug exposure was used and a sulforhodamine B (SRB) protein assay was used to estimate cell viability or growth. The concentration causing 50% cell growth inhibition (GI50) and 50% cell death (LC50, −50% growth) compared with the control was calculated. Compounds 9a-9l have been evaluated for their in vitro cytotoxicity in eight cell lines from seven human cancer types of lung (Hop-62, A-549) colon (COLO-205) cervix (Si—Ha), ovary (A-2780), prostate (PC3) breast (MCF7), oral (KB). The results are expressed as percent of cell growth determined relative to that of untreated control cells (Table-8 and table-9).
(In general: In SRB staining, fixed cells bind dye roughly in proportion to their protein.)

Series [2] relates to A 549 (lung cancer) cell line. In words: cells. The series is classed as cell-based. As to conditions: for GI50: mean of three determinations. On the procedure: as §1, §2
Series [3] has as its system MCF 7 (breast cancer) cell line. In words: cells. Format: cell-based. The note with it: for GI50: read-out: GI50 MCF 7. The procedure: as §1, §2
Series [4] concerns A 2780 (ovary cancer) cell line. The series can be described thus: cells. The note with it: for GI50: mean of three determinations. The series is classed as cell-based. The procedure: as §1, §2
Series [5] deals with HOP 62 (lung cancer) cell line. The series can be described thus: cells. Format: cell-based. As to conditions: for GI50: mean of three determinations. The procedure: as §1, §2
The test system of series [6] is PC 3 (prostate cancer) cell line. The series can be described thus: cells. Format: cell-based. As to conditions: for GI50: read-out: GI50 PC 3. The procedure: as §1, §2
For series [7], the system named is Colo 205 (colon cancer) cell line. In words: cells. Format: cell-based. As to conditions: for GI50: mean of three determinations. On the procedure: as §1, §2
The test system of series [8] is SiHa (cervix cancer) cell line. In words: cells. Format: cell-based. As to conditions: for GI50: mean of three determinations. The procedure:
as §1, §2

The test system of series [9] is duplex-form calf thymus DNA (CT-DNA). In words: Thermal denaturation studies with calf thymus DNA (DNA binding affinity). As to conditions: [PBD]:[DNA] 1:5, CT-DNA 100 μM, ligand 20 μM, pH 7.00. On the procedure:
Compounds have been subjected to thermal denaturation studies with duplex-form calf thymus DNA (CT-DNA) using an modification of a reported procedure (Newman, M. S. Carcinog-compr. Surv. 1976,1, 203; (b) Hecht, S. S.; Loy, M.; Hoffman, Carcinog-compr. Surv. 1976, 1, 325). Working solutions in aqueous buffer (10 mM NaH2PO4/Na2HPO4, 1 mM Na2EDTA, pH 7.00+0.01) containing CT-DNA (100 μm in phosphate) and the PBD (20 μm) have been prepared by addition of concentrated PBD solutions in DMSO to obtain a fixed [PBD]/[DNA] molar ratio of 1:5. The DNA-PBD solutions have been incubated at 37° C. for 0 and 18 h prior to analysis. Samples have been monitored at 260 using a Beckman DU-800 spectrophotometer fitted with high performance temperature controller, and heated at 1° C. min^−1 in the 40-110° C. range. DNA helix→coil transition temperatures (Tm) have been obtained from the maxima in the d(A260)/dT derivative plots. Drug-induced alterations in DNA melting behavior are given by: ΔTm=Tm(DNA+PBD)−Tm(DNA alone), where the Tm value for the PBD-free CT-DNA is 69.1±0.01.
The DNA binding activity for these novel C8-linked benzothiazole, benzoxazole-PBD hybrids has been examined by thermal denaturation studies using calf thymus (CT) DNA. […] The data for the compounds 9a-n is included in Table 7 for comparison.

The test system is the same in series [10]. As to conditions: comparative data, hybrids without piperazine, cited from earlier work.
Where [11] appears, read: 48 h drug exposure, SRB, read-out: GI50 KB.
[12] abbreviates: Homo sapiens, A2780, 48 h, read-out: GI50 A 2780, 48 h drug exposure, SRB.
[13] abbreviates: Homo sapiens, SiHa, 48 h, read-out: GI50 SiHa, 48 h drug exposure, SRB.

Consider `COc1cccc2c1C(=O)c1c(O)c3c(c(O)c1C2=O)C[C@@](O)(C(=O)CO)C[C@@H]3O[C@H]1C[C@H](N)[C@H](O)[C@H](C)O1` [ADR, adriamycin, reference compound], for which the GI50 in series [1] (Homo sapiens, 48 h, 48 h drug exposure, SRB, read-out: GI50 KB) was 0.16 µM; in series [2] (Homo sapiens, A549, 48 h drug exposure, SRB, read-out: GI50 A 549) it was 13 µM; in series [3] (Homo sapiens, MCF7, 48 h drug exposure, SRB, mean of three determinations), below 0.01 µM; in series [4] (Homo sapiens, A2780, 48 h drug exposure, SRB, read-out: GI50 A 2780), 0.002 µM; in series [5] (Homo sapiens, HOP-62, 48 h drug exposure, SRB, read-out: GI50 HOP 62), below 0.01 µM; in series [6] (Homo sapiens, 48 h drug exposure, SRB, mean of three determinations) it was below 0.01 µM. For the same molecule, the GI50 in series [7] (Homo sapiens, COLO 205, 48 h drug exposure, SRB, read-out: GI50 Colo 205) is 14.7 µM; in series [8] (Homo sapiens, SiHa, 48 h drug exposure, SRB, read-out: GI50 SiHa) it was 0.19 µM.

Take `COc1cc2c(cc1OCCCCN1CCN(CCCCOc3ccc(-c4nc5ccccc5s4)cc3)CC1)N=C[C@@H]1CCCN1C2=O` [Compound 9e, 7-Methoxy-8-[4-(4-{4-[4(1,3-benzothiazol-2-yl)-phenoxy]butyl}piperazin-1-yl)butyl]oxy-(11aS)-1,2,3,11a-tetrahydro-5H-pyrrolo[2,1-c][1,4]benzodiazepin-5-one]: the “LC50 KB” value in series [1] (50% cell death, 48 h drug exposure, SRB) stood at 2.3 µM. For the same molecule, the GI50 was below 0.01 µM in series [1] (setting [11]); 0.105 µM in series [2] (read-out: GI50 A 549, 48 h drug exposure, SRB); below 0.01 µM in series [3] (Homo sapiens, MCF7, 48 h); 0.097 µM in [4] (setting [12]); below 0.01 µM in series [5] (read-out: GI50 HOP 62, 48 h drug exposure, SRB); below 0.01 µM in [6] (Homo sapiens, 48 h). In addition, the GI50 in series [7] (read-out: GI50 Colo 205, 48 h drug exposure, SRB) was determined as 0.12 µM; in [8] (setting [13]), 0.107 µM. Also, the CC50 in series [2] (human, 48 h) was above 100 µM; in series [3] (human, 48 h), 0.15 µM; in [4] (human, 48 h), 2.2 µM; in [5] (human, 48 h), 27 µM; in [6] (human, 48 h) it was 2.5 µM; in series [7] (human, 48 h), above 100 µM. For the same molecule, in series [8] (human, 48 h), the CC50 was found to be 27.8 µM. Also, the “ΔTm after incubation at 37° C. for 0 h” value in series [9] turned out to be 12.2 °C. Moreover, the “ΔTm after incubation at 37° C. for 18 h” value in series [9] is 12.6 °C.

As for `COc1cc2c(cc1OCCCCN1CCN(CCCCOc3cccc(-c4nc5ccccc5s4)c3)CC1)N=C[C@@H]1CCCN1C2=O` [Compound 9h, 7-Methoxy-8-[4-(4-{4-[3(1,3-benzothiazol-2-yl)-phenoxy]butyl}piperazin-1-yl)butyl]oxy-(11aS)-1,2,3,11a-tetrahydro-5H-pyrrolo[2,1-c][1,4]benzodiazepin-5-one], the GI50 was 0.12 µM in series [1] (Homo sapiens, 48 h, read-out: GI50 KB, 48 h drug exposure, SRB); 0.12 µM in [2] (Homo sapiens, A549, 48 h, read-out: GI50 A 549, 48 h drug exposure, SRB); 0.12 µM in series [3] (Homo sapiens, MCF7, 48 h); 0.109 µM in [4] (setting [12]); 0.1 µM in [5] (Homo sapiens, HOP-62, 48 h, read-out: GI50 HOP 62, 48 h drug exposure, SRB); 0.14 µM in series [6] (Homo sapiens, 48 h). Moreover, the GI50 was determined as 0.16 µM in [7] (Homo sapiens, COLO 205, 48 h, read-out: GI50 Colo 205, 48 h drug exposure, SRB) and 0.13 µM in [8] (setting [13]). Moreover, the CC50 in series [1] (Homo sapiens, 48 h, read-out: LC50 KB, 50% cell death, 48 h drug exposure, SRB) was 0.2 µM; in series [2] (Homo sapiens, A549, 48 h, read-out: LC50 A 549, 50% cell death, 48 h drug exposure, SRB), above 100 µM; in [4] (Homo sapiens, A2780, 48 h, read-out: LC50 A 2780, 50% cell death, 48 h drug exposure, SRB) it was 2.3 µM; in series [6] (Homo sapiens, 48 h, read-out: LC50 Pc 3, 50% cell death, 48 h drug exposure, SRB) it was 2.4 µM; in series [7] (Homo sapiens, COLO 205, 48 h, read-out: LC50 Colo 205), above 100 µM. Also, the LC50 (concentration causing 50% cell death) came out at 2.2 µM in [3] (Homo sapiens, MCF7, 48 h, read-out: LC50 MCF 7, 50% cell death, 48 h drug exposure, SRB) and 27 µM in [8] (Homo sapiens, SiHa, 48 h, read-out: LC50 SiHa, 50% cell death, 48 h drug exposure, SRB). For the same molecule, the LC50 in series [5] (Homo sapiens, HOP-62, 48 h, read-out: LC50 HOP 62, 50% cell death, 48 h drug exposure, SRB) turned out to be 27 µM. The “ΔTm after incubation at 37° C. for 0 h” value in series [9] was determined as 11.9 °C. The “ΔTm after incubation at 37° C. for 18 h” value in series [9] amounted to 12.3 °C.

On to `COc1cc(-c2nc3ccccc3s2)ccc1OCCCCN1CCN(CCCCOc2cc3c(cc2OC)C(=O)N2CCC[C@H]2C=N3)CC1` [Compound 9m, 7-Methoxy-8-[4-(4-{4-[4(1,3-benzothiazol-2-yl)-2-methoxyphenoxy]butyl}piperazin-1-yl)butyl]oxy-(11aS)-1,2,3,11a-tetrahydro-5H-pyrrolo[2,1-c][1,4]benzodiazepin-5-one], for which, in [9], the “ΔTm after incubation at 37° C. for 0 h” value is 12.1 °C and the “ΔTm after incubation at 37° C. for 18 h” value came out at 12.5 °C.

On to `COc1cc2c(cc1OCCCCN1CCN(CCCCOc3cccc(-c4nc5ccccc5s4)c3)CC1)N=C[C@@H]1CCCN1C2=O` [Compound 9n, 7-Methoxy-8-[4-(4-{4-[3(1,3-benzothiazol-2-yl)-phenoxy]butyl}piperazin-1-yl)butyl]oxy-(11aS)-1,2,3,11a-tetrahydro-5H-pyrrolo[2,1-c][1,4]benzodiazepin-5-one], for which, in series [9], the “ΔTm after incubation at 37° C. for 0 h” value is 10.3 °C and the “ΔTm after incubation at 37° C. for 18 h” value is 10.6 °C.

Turning to `COc1cc2c(cc1OCCCCCOc1ccc(-c3nc4ccccc4o3)cc1)N=C[C@@H]1CCCN1C2=O` [Compound 30a], in [10], the “ΔTm after incubation at 37° C. for 0 h (PBD hybrids with out piperizine)” value is 4.1 °C and the “ΔTm after incubation at 37° C. for 18 h (PBD hybrids with out piperizine)” value was 4.3 °C.

Turning to `COc1cc(-c2nc3ccccc3o2)ccc1OCCCCCOc1cc2c(cc1OC)C(=O)N1CCC[C@H]1C=N2` [Compound 30b], in [10], the “ΔTm after incubation at 37° C. for 0 h (PBD hybrids with out piperizine)” value was 4.2 °C and the “ΔTm after incubation at 37° C. for 18 h (PBD hybrids with out piperizine)” value was 4.3 °C.

Consider `COc1cc2c(cc1O)N=CC1CCCN1C2=O` (stereo not drawn) [DC-81, reference compound], for which the 50% growth inhibitory concentration (GI50) in series [1] (setting [11]) amounted to 0.17 µM; in series [3] (48 h drug exposure, SRB, mean of three determinations), 0.16 µM; in series [4] (48 h drug exposure, SRB, read-out: GI50 A 2780) it was 0.13 µM; in series [5] (48 h drug exposure, SRB, read-out: GI50 HOP 62) it was 0.11 µM; in [7] (48 h drug exposure, SRB, read-out: GI50 Colo 205) it was 0.1 µM; in series [8] (48 h drug exposure, SRB, read-out: GI50 SiHa), 0.16 µM. In addition, in series [9], the “ΔTm after incubation at 37° C. for 0 h” value was found to be 0.3 °C. For the same molecule, the “ΔTm after incubation at 37° C. for 18 h” value in series [9] was determined as 0.7 °C.

For orientation: GI50 means the concentration giving 50% growth inhibition. The LC50 is the concentration that kills 50% of the test population.
